Counter-ions that a name gives are not always drawn. Like-named read-outs stand apart in the source and are kept apart here.
Columns and labels:
[1] = biological target: T1, gluthathione reductase (GR) (Homo sapiens, UniProt P00390); experiment: Inhibition of recombinant GR (GSSG assay); type: biochemical
T1 sequence (P00390 44-522): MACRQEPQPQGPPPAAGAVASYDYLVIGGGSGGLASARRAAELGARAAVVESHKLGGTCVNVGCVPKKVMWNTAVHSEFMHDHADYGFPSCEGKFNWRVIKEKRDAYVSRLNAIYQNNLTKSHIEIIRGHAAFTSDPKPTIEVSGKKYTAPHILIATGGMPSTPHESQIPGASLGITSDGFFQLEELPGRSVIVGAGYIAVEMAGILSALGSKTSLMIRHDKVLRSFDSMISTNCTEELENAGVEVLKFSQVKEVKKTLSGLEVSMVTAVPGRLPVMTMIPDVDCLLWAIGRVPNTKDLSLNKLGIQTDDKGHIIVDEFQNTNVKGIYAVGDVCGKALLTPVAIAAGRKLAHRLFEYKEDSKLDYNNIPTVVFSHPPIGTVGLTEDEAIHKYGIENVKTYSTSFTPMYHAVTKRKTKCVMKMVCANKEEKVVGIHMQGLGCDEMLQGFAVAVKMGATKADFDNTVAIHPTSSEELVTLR
Method: (§1) Small molecule inhibition of recombinant thioredoxin reductase 1 (TrxR1) and gluthathione reductase (GR) was examined in 96-well plate format. 15 nM TrxR1 was incubated in the presence of 250 μM NADPH, 0.1 mg/ml BSA, and various concentrations of the compound of Example 1 (1% DMSO final) in 50 mM Tris (pH 7.5) and 2 mM EDTA buffer for 15 minutes. Following the incubation period, 2.5 mM DTNB was added to each well and the change in O.D. at 412 nm was followed. Percent activity was determined using DMSO vehicle and no TrxR1 (blank) controls. 2 nM GR was incubated in the presence of 250 μM NADPH, 0.1 mg/ml BSA, and various concentrations of compounds (1% DMSO final) in 50 mM Tris (pH 7.5) and 2 mM EDTA buffer for 15 minutes. Following the incubation period, 1 mM GSSG was added to each well and the change in O.D. at 340 nm was followed. Percent activity was determined using DMSO vehicle and no GR (blank) controls.

[2] = biological target: T2, recombinant thioredoxin reductase 1 (TrxR1) (Homo sapiens, UniProt Q16881); experiment: Inhibition of recombinant TrxR1 (DTNB assay); type: biochemical
T2 sequence (Q16881 1-649): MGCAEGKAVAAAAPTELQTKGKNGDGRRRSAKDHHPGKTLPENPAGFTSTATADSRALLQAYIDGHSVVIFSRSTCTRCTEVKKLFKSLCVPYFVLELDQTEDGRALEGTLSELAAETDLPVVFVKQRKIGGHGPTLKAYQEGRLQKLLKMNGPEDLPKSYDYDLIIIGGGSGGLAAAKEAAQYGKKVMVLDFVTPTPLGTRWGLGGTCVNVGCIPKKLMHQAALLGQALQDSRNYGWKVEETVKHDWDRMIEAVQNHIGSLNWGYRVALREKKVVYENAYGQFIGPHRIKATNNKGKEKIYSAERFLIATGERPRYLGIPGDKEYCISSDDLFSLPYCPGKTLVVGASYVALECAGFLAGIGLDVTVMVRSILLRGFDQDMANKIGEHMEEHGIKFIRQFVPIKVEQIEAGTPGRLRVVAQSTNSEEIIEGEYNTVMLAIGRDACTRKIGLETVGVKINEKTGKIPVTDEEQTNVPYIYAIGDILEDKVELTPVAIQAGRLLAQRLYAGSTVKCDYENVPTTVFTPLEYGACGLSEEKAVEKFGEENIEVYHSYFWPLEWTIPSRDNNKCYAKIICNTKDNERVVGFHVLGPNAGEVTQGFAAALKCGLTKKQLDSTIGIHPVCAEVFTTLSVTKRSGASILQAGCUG
Method: as §1

[3] = Biological Example 4, assays of Biological Example 1
[4] = Biological Example 4, assays of Biological Example 1, read-out: TrxR Inhibition
[5] = Biological Example 1, 2 nM GR, 250 μM NADPH, 15 minutes incubation
[6] = Biological Example 1, 15 nM TrxR1, 250 μM NADPH, 15 minutes incubation, read-out: TrxR inhibition

Structure (SMILES)	IC50 [1, 3] [µM]	IC50 [2, 4] [µM]	IC50 [1, 5] [µM]	IC50 [2, 6] [µM]
O=C1C=C[C@H]2[C@@H]3C(=O)N(c4ccc(O)cc4)C(=O)[C@@H]3[C@@H]1N2Cc1ccccc1 (relative stereo) [Example 54, exo-11-Benzyl-4-(4-hydroxyphenyl)-4,11-diazatricyclo[5.3.1.0^2,6]undec-9-ene-3,5,8-trione Trifluoroacetate]	> 100	1.8		
Cc1cccc(CN2[C@@H]3C(=O)C=C[C@H]2[C@@H]2C(=O)N(c4ccc(O)cc4)C(=O)[C@@H]23)c1 (relative stereo) [Example 55, exo-4-(4-Hydroxyphenyl)-11-(3-methylbenzyl)-4,11-diazatricyclo[5.3.1.0^2,6]-undec-9-ene-3,5,8-trione Trifluoroacetate]	> 100	1.64		
Cc1cccc(CN2[C@@H]3C(=O)C=C[C@H]2[C@@H]2C(=O)N(c4ccccc4O)C(=O)[C@@H]23)c1 (relative stereo) [Example 56, exo-4-(2-Hydroxyphenyl)-11-(3-methylbenzyl)-4,11-diazatricyclo[5.3.1.0^2,6]-undec-9-ene-3,5,8-trione Trifluoroacetate]	> 100	1.44		
Cc1cccc(CN2[C@@H]3C(=O)C=C[C@H]2[C@@H]2C(=O)N(c4cccc(O)c4)C(=O)[C@@H]23)c1 (relative stereo) [Example 58, exo-4-(3-Hydroxyphenyl)-11-(3-methylbenzyl)-4,11-diazatricyclo[5.3.1.0^2,6]undec-9-ene-3,5,8-trione Trifluoroacetate]	> 100	1.3	> 100	0.75
CCc1ccc(N2C(=O)[C@@H]3[C@H](C2=O)[C@H]2C(=O)C=C[C@@H]3N2Cc2cccc(C)c2)cc1 (relative stereo) [Example 59, exo-4-(4-Ethylphenyl)-11-(3-methylbenzyl)-4,11-diazatricyclo[5.3.1.0^2,6]-undec-9-ene-3,5,8-trione Trifluoroacetate]	> 100	1.63		
CCN1C(=O)[C@@H]2[C@H](C1=O)[C@H]1C(=O)C=C[C@@H]2N1C (relative stereo) [Example 61, exo-4-Ethyl-11-methyl-4,11-diazatricyclo[5.3.1.0^2,6]undec-9-ene-3,5,8-trione Trifluoroacetate]	> 100	23.4		
Cc1cccc(CN2[C@@H]3C(=O)C=C[C@H]2[C@@H]2C(=O)N(c4cccc(Br)c4)C(=O)[C@@H]23)c1 (relative stereo) [Example 62, exo-4-(3-Bromophenyl)-11-(3-methylbenzyl)-4,11-diazatricyclo[5.3.1.0^2,6]-undec-9-ene-3,5,8-trione Trifluoroacetate]	> 100	1.23		
Cc1cccc(CN2[C@@H]3C(=O)C=C[C@H]2[C@@H]2C(=O)N(c4cccc(N5CCCCC5)c4)C(=O)[C@@H]23)c1 (relative stereo) [Example 63, exo-11-(3-Methylbenzyl)-4-(3-(piperidin-1-yl)phenyl)-4,11-diazatricyclo-[5.3.1.0^2,6]undec-9-ene-3,5,8-trione Trifluoroacetate]	> 100	1.58		
Cc1cccc(CN2[C@@H]3C(=O)C=C[C@H]2[C@@H]2C(=O)N(c4c(C)cccc4C)C(=O)[C@@H]23)c1 (relative stereo) [Example 65, exo 4-(2,6-Dimethylphenyl)-11-(3-methylbenzyl)-4,11-diazatricyclo-[5.3.1.0^2,6]undec-9-ene-3,5,8-trione Trifluoroacetate]	> 100	5.3	> 100	4.52
Cc1cccc(CN2[C@@H]3C(=O)C=C[C@H]2[C@@H]2C(=O)N(c4ccc(Br)cc4)C(=O)[C@@H]23)c1 (relative stereo) [Example 66, exo-4-(4-Bromophenyl)-11-(3-methylbenzyl)-4,11-diazatricyclo[5.3.1.0^2,6]-undec-9-ene-3,5,8-trione Trifluoroacetate]	> 100	1.43		

Results, then the compound that gave them:

IC50 [1, 3] [µM]	IC50 [2, 4] [µM]	IC50 [1, 5] [µM]	IC50 [2, 6] [µM]	Structure (SMILES)
> 100	1.3			O=C1C=C[C@H]2[C@@H]3C(=O)N(c4ccccc4)C(=O)[C@@H]3[C@@H]1N2Cc1ccccc1Cl (relative stereo) [Example 24, exo-11-(2-Chlorobenzyl)-4-phenyl-4,11-diazatricyclo[5.3.1.0^2,6]undec-9-ene-3,5,8-trione Trifluoroacetate]
> 100	7.06			O=C1C=C[C@H]2[C@@H]3C(=O)N(c4ccccc4)C(=O)[C@@H]3[C@@H]1N2CC1CC1 (relative stereo) [Example 25, exo-11-(Cyclopropylmethyl)-4-phenyl-4,11-diazatricyclo[5.3.1.0^2,6]undec-9-ene-3,5,8-trione Trifluoroacetate]
> 100	1.34			O=C1C=C[C@H]2[C@@H]3C(=O)N(c4ccccc4)C(=O)[C@@H]3[C@@H]1N2Cc1cc(F)ccc1F (relative stereo) [Example 27, exo-11-(2,5-Difluorobenzyl)-4-phenyl-4,11-diazatricyclo[5.3.1.0^2,6]undec-9-ene-3,5,8-trione Trifluoroacetate]
> 100	1.07			O=C1C=C[C@H]2[C@@H]3C(=O)N(c4ccccc4)C(=O)[C@@H]3[C@@H]1N2Cc1cccc(F)c1 (relative stereo) [Example 29, exo-11-(3-Fluorobenzyl)-4-phenyl-4,11-diazatricyclo[5.3.1.0^2,6]undec-9-ene-3,5,8-trione Trifluoroacetate]
> 100	1.4			COC(=O)c1cccc(CN2[C@@H]3C(=O)C=C[C@H]2[C@H]2C(=O)N(c4ccccc4)C(=O)[C@H]23)c1 (relative stereo) [Example 45, endo-Methyl 3-((3,5,10-trioxo-4-phenyl-4,11-diazatricyclo[5.3.1.0^2,6]undec-8-en-11-yl)methyl)benzoate]
> 100	5.1			CCN1C(=O)C2C(C1=O)[C@@H]1C=CC(=O)[C@H]2N1Cc1ccccc1 (relative stereo) [Example 46, endo-11-Benzyl-4-ethyl-4,11-diazatricyclo[5.3.1.0^2,6]undec-9-ene-3,5,8-trione Trifluoroacetate]
> 100	4.15			CCN1C(=O)[C@@H]2[C@H](C1=O)[C@H]1C(=O)C=C[C@@H]2N1Cc1ccccc1 (relative stereo) [Example 47, exo-11-Benzyl-4-ethyl-4,11-diazatricyclo[5.3.1.0^2,6]undec-9-ene-3,5,8-trione Trifluoroacetate]
> 100	2.53			CCN1C(=O)[C@@H]2[C@H](C1=O)[C@H]1C(=O)C=C[C@@H]2N1Cc1cccc(C)c1 (relative stereo) [Example 49, exo-4-Ethyl-11-(3-methylbenzyl)-4,11-diazatricyclo[5.3.1.0^2,6]undec-9-ene-3,5,8-trione Trifluoroacetate]
> 100	4.61			CN1C(=O)[C@@H]2[C@H](C1=O)[C@H]1C(=O)C=C[C@@H]2N1Cc1ccccc1 (relative stereo) [Example 51, exo-11-Benzyl-4-methyl-4,11-diazatricyclo[5.3.1.0^2,6]undec-9-ene-3,5,8-trione Trifluoroacetate]
> 100	3.26			Cc1cccc(CN2[C@@H]3C(=O)C=C[C@H]2[C@@H]2C(=O)N(C)C(=O)[C@@H]23)c1 (relative stereo) [Example 53, exo-4-Methyl-11-(3-methylbenzyl)-4,11-diazatricyclo[5.3.1.0^2,6]undec-9-ene-3,5,8-trione Trifluoroacetate]

From US10881653B2, “Tricyclic compounds and their use in the treatment of cancer” (The United States of America, as represented by the …, priority 2015, dated 2021)
